Results from US11433053B2, “LSD1 inhibitor and preparation method and application thereof” (CSPC ZHONGQI PHARMACEUTICAL TECHNOLOGY (SHIJIAZHUANG) CO., …, priority 2017, dated 2022).

What was measured:
[1] = Pharmacokinetic evaluation in C57BL/6 mice after intravenous and oral administration; assay type: in vivo; settings: male, mouse, plasma; for Cmax / clearance / half-life / Vd: IV 1 mg/kg; for Cmax: oral 2 mg/kg, route of Cmax not stated, read-out: max concentration Cmax; for clearance: read-out: clearance CL; for half-life: read-out: half-life T1/2 (IV, h) (converted); for Vd: read-out: volumes of distribution Vdss; for bioavailability: PO 2 mg/kg vs IV 1 mg/kg, read-out: bioavailability F (%); for AUC(0-t): PO 2 mg/kg, read-out: the area under the plasma concentration-time curve AUC0-last PO
Description: Experimental purposes: To test the pharmacokinetics of compounds in C57BL/6 mice
C57BL/6 mice (male, 7-9 weeks old, Shanghai Slack)
Test the pharmacokinetics characteristics of rodents after intravenous and oral administration in accordance with standard protocols, and the candidate compound was formulated into a clear solution in the experiment. The mice were administered by intravenous injection and orally once. The intravenous and oral vehicle is a 10% aqueous solution of hydroxypropyl β-cyclodextrin or a physiological saline solution. Six male C57BL/6 mice were employed in this assay, three of them were administered intravenously at a dose of 1 mg/kg, plasma samples were collected at 0 h (before administration) and 0.0833, 0.25, 0.5, 1, 2, 4, 7, 24 h after administration. Another three mice were administered by oral gavage at a dose of 2 mg/kg, plasma samples were collected at 0 h (before administration) and 0.5, 1, 2, 3, 4, 6, 24 h after administration. Collect whole blood samples within 24 hours, centrifuge at 3000 g for 15 minutes, separate the supernatant to obtain a plasma sample, 4 times volume of the internal standard acetonitrile solution was added to precipitate the protein. Centrifuge the supernatant and add an equal volume of water and centrifuge to take the supernatant. LC-MS/MS was used to quantitatively analyze plasma concentrations and calculate pharmacokinetic parameters such as max concentration (Cmax), clearance (CL), half-life (T1/2), volumes of distribution (Vdss), the area under the plasma concentration-time curve (AUC0-last), bioavailability (F), etc.

[2] = biological target: human LSD1 (Homo sapiens (Human), UniProt O60341); assay: Evaluation of enzyme activity: LSD1 fluorescence coupling enzyme assay (HRP/Amplex Red); assay type: biochemical; settings: human LSD1, histone H3(1-21)K4me2 peptide 10 μM, 30 min pre-incubation
Summary of the method: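 Human LSD1 preincubated 30 min with compound, then reacted with H3(1-21)K4me2 peptide (10 μM). FAD-dependent H2O2 detected via HRP/Amplex Red fluorescence (Ex/Em 535/590). Ten-dose, 3-fold dilutions in duplicate from 10 μM gave IC50s, binned into activity classes.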

[3] = test system: H1417 cells; assay: Cell proliferation inhibitory activity on H1417 cells (CellTiter-Glo, 10 days); assay type: cell-based, human; settings: for IC50: 10 days incubation; for Emax: NCI-H1417, H1417 cells, read-out: Maximum inhibition percentage (%)
Description: Experimental purposes: To test the proliferation inhibitory activities of the test compounds on H1417 cells.
Experimental materials: RPMI 1640 medium, fetal bovine serum, Promega CellTiter-Glo reagent. The H1417 cell line purchased from ATCC. Envision Multi-Label Analyzer (PerkinElmer).
Experimental method: H1417 cells were seeded in a black 384-well plate, 1000 cells per well in […] of cell suspension. The test compounds were diluted 3-fold with Epmotion to the 10th concentration i.e, the compounds were diluted from 10 mmol to […], and a double duplicate well experiment was set. 198 μL medium was added to the middle plate, according to the corresponding position, 2 μL gradient diluted compounds were added to the middle plate. The mixture was mixed evenly and transferred 20 μL per well to the cell plates. The cell plates were incubated in a carbon dioxide incubator for 10 days. 25 μL of Promega CellTiter-Glo reagent per well was added to the cell plate and the mixture was incubated for 10 minutes at room temperature to stabilize the luminescence signal. Readings were performed by PerkinElmer Envision multi-label analyzer.
Data analysis: The original data was converted to the inhibition rate by the equation (Max-Ratio)/(Max-Min)*100%, and the value of IC50 can be obtained by curve fitting with four parameters. (Model 205 in XLFIT5, iDBS)
The growth inhibitory activities of the test compounds on H1417 cells were classified as + for IC50≤100 nM; ++ for IC50>100 nM and ≤500 nM; +++ for IC50>500 nM and ≤1000 nM; the highest percentage inhibition of cell viability was classified as: […]; 90%>B≥70%; 70%>C≥50%.

[4] = Homo sapiens, NCI-H1417, 240 h, H1417 cells
[5] = Homo sapiens, highest percentage inhibition of cell viability

Compound | IC50 [2] [nM] | IC50 [3, 4] [nM] | Emax [3, 5] [%] | further results
CC1(c2nc(C3(CN[C@@H]4C[C@H]4c4ccccc4)CC3)no2)CCC(N)CC1 (stereo partly shown) [Example 224] | – | – | – | Cmax [1]: 58.5 ng/mL; clearance [1]: 112 mL/min/kg; half-life [1]: 2.97 h; Vd [1]: 21.7 L/kg; bioavailability [1]: 35.1%; AUC(0-t) [1]: 0.273 µM·h
N#Cc1ccc(-c2nc(C3(CN[C@H]4CC4c4ccccc4)CC3)no2)cc1 (stereo partly shown) [Example 64] | ≤ 50 | 100 to 500 | 90 to 100 | Cmax [1]: 1290 ng/mL; clearance [1]: 21.9 mL/min/kg; half-life [1]: 1.3 h; Vd [1]: 1.9 L/kg; bioavailability [1]: 44%; AUC(0-t) [1]: 1.88 µM·h
O=C(O)c1ccc(CN2CCC(c3nc(C4(CN[C@@H]5CC5c5ccccc5)CC4)no3)CC2)cc1 (stereo partly shown) [Example 169] | – | 500 to 1000 | 50 to 70 | Cmax [1]: 763 ng/mL; clearance [1]: 43.4 mL/min/kg; half-life [1]: 1 h; Vd [1]: 0.5 L/kg; bioavailability [1]: 20.6%; AUC(0-t) [1]: 0.329 µM·h
O=C(O)C12CCC(c3nc(C4(CN[C@H]5CC5c5ccccc5)CC4)no3)(CC1)CC2 (stereo partly shown) [Example 177] | – | 500 to 1000 | 50 to 70 | Cmax [1]: 3210 ng/mL; clearance [1]: 9.9 mL/min/kg; half-life [1]: 1.6 h; Vd [1]: 0.5 L/kg; bioavailability [1]: 51.5%; AUC(0-t) [1]: 3.86 µM·h
NC1CCC(NCC2(CN[C@H]3CC3c3ccccc3)CC2)CC1 (stereo partly shown) [Example 195] | ≤ 50 | 100 to 500 | 50 to 70 | –
NC1CCC(c2nc(C3(CN[C@@H]4C[C@H]4c4ccccc4)CC3)no2)CC1(F)F (stereo partly shown) [Example 244] | ≤ 50 | ≤ 100 | 70 to 90 | –
N#CC1(CN[C@H]2CC2c2ccccc2)CCC1 (stereo partly shown) [Example 8] | 50 to 100 | 100 to 500 | 50 to 70 | –
O=C(NC1CC1)c1ccc(-c2nc(C3(CN[C@H]4CC4c4ccccc4)CC3)no2)cc1 (stereo partly shown) [Example 184] | ≤ 50 | 100 to 500 | 90 to 100 | –
c1ccc(C2C[C@@H]2NCC2(c3noc(C4CC5(CCNCC5)C4)n3)CC2)cc1 (stereo partly shown) [Example 219] | ≤ 50 | 500 to 1000 | 90 to 100 | –
CC(C)Oc1ccc(-c2nc(C3(CN[C@H]4CC4c4ccccc4)CCC3)no2)cc1 (stereo partly shown) [Example 87] | ≤ 50 | 100 to 500 | 50 to 70 | –
FC(F)(F)Oc1ccc(-c2nc(C3(CN[C@H]4CC4c4ccccc4)CCC3)no2)cc1 (stereo partly shown) [Example 88] | ≤ 50 | 100 to 500 | 50 to 70 | –
c1ccc([C@@H]2C[C@H]2NCC2(CN3CCCNCC3)CC2)cc1 [Example 230] | 100 to 500 | 100 to 500 | 50 to 70 | –
CN(C)C(=O)c1ccc(-c2nc(C3(CN[C@H]4CC4c4ccccc4)CC3)no2)cc1 (stereo partly shown) [Example 183] | ≤ 50 | 500 to 1000 | 90 to 100 | –
C[C@@H]1CCCN1CC1(CN[C@H]2CC2c2ccccc2)CC1 (stereo partly shown) [Example 213] | ≤ 50 | 100 to 500 | 50 to 70 | –
c1ccc(C2C[C@@H]2NCC2(c3noc(C4CCc5nc[nH]c5C4)n3)CC2)cc1 (stereo partly shown) [Example 161] | ≤ 50 | 100 to 500 | 70 to 90 | –
N#Cc1ccc(-c2nc(C3(CN[C@H]4CC4c4ccccc4)CCC3)no2)c(F)c1 (stereo partly shown) [Example 193] | ≤ 50 | 100 to 500 | 50 to 70 | –
N#CC1(CN[C@H]2CC2c2ccccc2)CC1 (stereo partly shown) [Example 1] | 100 to 500 | ≤ 100 | 90 to 100 | –
c1ccc(C2C[C@@H]2NCC2(c3noc(-c4cn5c(n4)CCCC5)n3)CC2)cc1 (stereo partly shown) [Example 162] | ≤ 50 | 500 to 1000 | 90 to 100 | –
COC(=O)[C@H]1CC[C@H](c2nc(C3(CN[C@@H]4C[C@H]4c4ccccc4)CC3)no2)CC1 [Example 171] | ≤ 50 | 100 to 500 | 50 to 70 | –
c1ccc([C@@H]2C[C@H]2NCC2(c3noc([C@H]4C[C@H]5CNC[C@H]5C4)n3)CC2)cc1 [Example 156] | 50 to 100 | 100 to 500 | 70 to 90 | –
C[C@@H]1CN(CC2(CN[C@H]3CC3c3ccccc3)CC2)C[C@H](C)O1 (stereo partly shown) [Example 217] | 100 to 500 | 500 to 1000 | 50 to 70 | –
N[C@H]1CC[C@H](c2nc(C3(CN[C@@H]4C[C@H]4c4ccccc4)CCC3)no2)CC1 [Example 233] | 100 to 500 | 100 to 500 | 70 to 90 | –
O=C(O)[C@@H]1CC[C@H](c2nc(C3(CN[C@H]4CC4c4ccccc4)CC3)no2)C1 (stereo partly shown) [Example 178] | 100 to 500 | 500 to 1000 | 70 to 90 | –
CN(C)[C@H]1CC[C@@H](c2nc(C3(CN[C@@H]4C[C@H]4c4ccccc4)CC3)no2)CC1 [Example 116] | ≤ 50 | 100 to 500 | 70 to 90 | –
O=C(O)[C@H]1C[C@H](c2nc(C3(CN[C@@H]4C[C@H]4c4ccccc4)CC3)no2)C1 [Example 149] | 50 to 100 | – | – | IC50 ([3]; H1417 cells): 500 to 1000 nM; Maximum inhibition percentage (%) ([3]; H1417 cells, highest percentage inhibition of cell viability): C (70%>C≥50%)
Clc1ccc(-c2nnc(C3(CN[C@H]4CC4c4ccccc4)CC3)o2)cc1 (stereo partly shown) [Example 70] | ≤ 50 | 100 to 500 | 90 to 100 | –
NC(=O)c1ccc(-c2nc(C3(CN[C@H]4CC4c4ccccc4)CCC3)no2)cc1 (stereo partly shown) [Example 95] | ≤ 50 | ≤ 100 | 50 to 70 | –
NC1CCN(c2nc(C3(CN[C@@H]4C[C@H]4c4ccccc4)CC3)no2)CC1 [Example 159] | 50 to 100 | 100 to 500 | 90 to 100 | –
CCNCC1(CN[C@H]2CC2c2ccccc2)CC1 (stereo partly shown) [Example 6] | 100 to 500 | 500 to 1000 | 50 to 70 | –
